Experimental data reported in PubChem BioAssay AID1919010 (Molecular Pharmacology Branch, DTP, NCI, 2023).

Test system: Hs578T complex spheroid growth, percent test/control
Experiment: Anticancer human tumor Hs578T cell line growth inhibition [AhR];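 also: luminescent viability signal as a proxy for spheroid growth; spheroids exposed to agents for one week after three days of growth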
Conditions: for IC50: curve of first compound; for viability, T/C: stronger effect = lower value
Summary of the method: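 Complex tumor spheroids co-cultured with HUVEC and human MSC stroma; AhR antagonists tested in combination with standard-of-care and investigational agents. Top concentration at or near clinical Cmax (else 10 microM), half-log dilutions; growth expressed as percent test/control.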

Work on `Nc1ncn(C2CC(O)C(CO)O2)c(=O)n1` (stereo not given) + CC(CO)NC(=O)c1cc(-c2ccc(Cl)cc2)nn(-c2cnn(C)c2)c1=O yielded an IC50 (second compound 0.1 µM) of over 1000 nM, an IC50 (second compound 0.316 µM) of over 1000 nM and an IC50 (second compound 1 µM) of over 1000 nM. The IC50 (second compound 3.16 µM) was over 1000 nM, the IC50 (second compound 10 µM) was over 1000 nM and the viability, T/C (second compound 0.1 µM, first compound 0.00316 µM) was 109%. For the same molecule, the viability, T/C (second compound 0.1 µM, first compound 0.01 µM) was 107%, the viability, T/C (second compound 0.1 µM, first compound 0.0316 µM) was 118% and the viability, T/C (second compound 0.1 µM, first compound 0.1 µM) was 107%. For the same molecule, the viability, T/C (second compound 0.1 µM, first compound 0.316 µM) was 103%, the viability, T/C (second compound 0.1 µM, first compound 1 µM) was 95.5% and the viability, T/C (second compound 0.316 µM, first compound 0.00316 µM) was 106%. The viability, T/C (second compound 0.316 µM, first compound 0.01 µM) was 114%, the viability, T/C (second compound 0.316 µM, first compound 0.0316 µM) was 110% and the viability, T/C (second compound 0.316 µM, first compound 0.1 µM) was 114%. For the same molecule, the viability, T/C (second compound 0.316 µM, first compound 0.316 µM) was 120%, the viability, T/C (second compound 0.316 µM, first compound 1 µM) was 109% and the viability, T/C (second compound 1 µM, first compound 0.00316 µM) was 117%. The viability, T/C (second compound 1 µM, first compound 0.01 µM) was 108%, the viability, T/C (second compound 1 µM, first compound 0.0316 µM) was 103% and the viability, T/C (second compound 1 µM, first compound 0.1 µM) was 102%. For the same molecule, the viability, T/C (second compound 1 µM, first compound 0.316 µM) was 107%, the viability, T/C (second compound 1 µM, first compound 1 µM) was 96% and the viability, T/C (second compound 3.16 µM, first compound 0.00316 µM) was 109%. It also gave a viability, T/C (second compound 3.16 µM, first compound 0.01 µM) of 109%, a viability, T/C (second compound 3.16 µM, first compound 0.0316 µM) of 117% and a viability, T/C (second compound 3.16 µM, first compound 0.1 µM) of 114%. It also gave a viability, T/C (second compound 3.16 µM, first compound 0.316 µM) of 101%, a viability, T/C (second compound 3.16 µM, first compound 1 µM) of 97% and a viability, T/C (second compound 10 µM, first compound 0.00316 µM) of 96.9%. For the same molecule, the viability, T/C (second compound 10 µM, first compound 0.01 µM) was 100%, the viability, T/C (second compound 10 µM, first compound 0.0316 µM) was 105% and the viability, T/C (second compound 10 µM, first compound 0.1 µM) was 99.6%. The viability, T/C (second compound 10 µM, first compound 0.316 µM) was 92.9% and the viability, T/C (second compound 10 µM, first compound 1 µM) was 100%.
`Nc1ncn(C2CC(O)C(CO)S2)c(=O)n1` (stereo not given) + Cc1ccccc1N=Nc1ccc(NC(=O)c2ccnn2C)c(C)c1 showed an IC50 (second compound 0.1 µM) of over 300 nM, an IC50 (second compound 0.316 µM) of over 300 nM and an IC50 (second compound 1 µM) of over 300 nM. For the same molecule, the IC50 (second compound 3.16 µM) was over 300 nM, the IC50 (second compound 10 µM) was over 300 nM and the viability, T/C (second compound 0.1 µM, first compound 0.000949 µM) was 103%. For the same molecule, the viability, T/C (second compound 0.1 µM, first compound 0.003 µM) was 109%, the viability, T/C (second compound 0.1 µM, first compound 0.00949 µM) was 102% and the viability, T/C (second compound 0.1 µM, first compound 0.03 µM) was 99.8%. For the same molecule, the viability, T/C (second compound 0.1 µM, first compound 0.0949 µM) was 98.1%, the viability, T/C (second compound 0.1 µM, first compound 0.3 µM) was 85% and the viability, T/C (second compound 0.316 µM, first compound 0.000949 µM) was 117%. The viability, T/C (second compound 0.316 µM, first compound 0.003 µM) was 101%, the viability, T/C (second compound 0.316 µM, first compound 0.00949 µM) was 103% and the viability, T/C (second compound 0.316 µM, first compound 0.03 µM) was 102%. The viability, T/C (second compound 0.316 µM, first compound 0.0949 µM) was 94.3%, the viability, T/C (second compound 0.316 µM, first compound 0.3 µM) was 96.5% and the viability, T/C (second compound 1 µM, first compound 0.000949 µM) was 106%. For the same molecule, the viability, T/C (second compound 1 µM, first compound 0.003 µM) was 112%, the viability, T/C (second compound 1 µM, first compound 0.00949 µM) was 106% and the viability, T/C (second compound 1 µM, first compound 0.03 µM) was 90.5%. It also gave a viability, T/C (second compound 1 µM, first compound 0.0949 µM) of 94.8%, a viability, T/C (second compound 1 µM, first compound 0.3 µM) of 84% and a viability, T/C (second compound 3.16 µM, first compound 0.000949 µM) of 83%. It also gave a viability, T/C (second compound 3.16 µM, first compound 0.003 µM) of 98.8%, a viability, T/C (second compound 3.16 µM, first compound 0.00949 µM) of 94.7% and a viability, T/C (second compound 3.16 µM, first compound 0.03 µM) of 83.9%. The viability, T/C (second compound 3.16 µM, first compound 0.0949 µM) was 90.7%, the viability, T/C (second compound 3.16 µM, first compound 0.3 µM) was 87.2% and the viability, T/C (second compound 10 µM, first compound 0.000949 µM) was 65.3%. It also gave a viability, T/C (second compound 10 µM, first compound 0.003 µM) of 67%, a viability, T/C (second compound 10 µM, first compound 0.00949 µM) of 68% and a viability, T/C (second compound 10 µM, first compound 0.03 µM) of 64%. For the same molecule, the viability, T/C (second compound 10 µM, first compound 0.0949 µM) was 69.1% and the viability, T/C (second compound 10 µM, first compound 0.3 µM) was 66.6%.
